Measured values: patent US8455475B2 (Gruenenthal GmbH, priority 2009, dated 2013)

Each compound was assayed against T1, rat B1R (bradykinin receptor 1) (Rattus norvegicus, UniProt P97583) (assay: FLIPR Ca2+ assay (Fluo-4) on CHO K1 cells stably transfected with the B1R gene of the rat (rB1R cells): % inhibition at 10 μM / IC50, agonist Des-Arg9-bradykinin). Details: CHO-K1, rat B1R.
T1 construct: expressed in transfected cells; host or cells: CHO K1 cells
T1 sequence (P97583 1-337): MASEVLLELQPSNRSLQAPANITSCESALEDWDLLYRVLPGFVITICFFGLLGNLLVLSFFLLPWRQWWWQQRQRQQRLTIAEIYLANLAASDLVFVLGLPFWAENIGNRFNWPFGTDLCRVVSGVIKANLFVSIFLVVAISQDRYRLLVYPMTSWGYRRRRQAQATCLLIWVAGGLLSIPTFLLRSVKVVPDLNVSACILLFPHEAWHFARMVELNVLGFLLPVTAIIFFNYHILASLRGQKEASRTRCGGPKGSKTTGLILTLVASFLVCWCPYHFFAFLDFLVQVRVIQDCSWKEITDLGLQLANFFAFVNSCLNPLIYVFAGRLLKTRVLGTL
Type: cell-based
Procedure: The agonistic or antagonistic action of substances can be quantified on the bradykinin receptor 1 (B1R) of the human and rat species with ectopically expressing cell lines (CHO K1 cells) and with the aid of a Ca^2+-sensitive dyestuff (Fluo-4) in a fluorescent imaging plate reader (FLIPR). The figure in % activation is based on the Ca^2+ signal after addition of Lys-Des-Arg^9-bradykinin (0.5 nM) or Des-Arg^9-bradykinin (100 nM). Antagonists lead to a suppression of the Ca^2+ inflow after addition of the agonist. % inhibition compared with the maximum achievable inhibition is stated.
The agonistic or antagonistic action of substances can be determined on the bradykinin receptor 1 (B1R) of the human and rat species with the following assay. In accordance with this assay, the Ca^2+ inflow through the channel is quantified with the aid of a Ca^2+-sensitive dyestuff (type Fluo-4, Molecular Probes Europe BV, Leiden, Holland) in a fluorescent imaging plate reader (FLIPR, Molecular Devices, Sunnyvale, USA).
Chinese hamster ovary cells (CHO K1 cells) transfected stably with the human B1R gene (hB1R cells) or the B1R gene of the rat (rB1R cells) are used. For functional studies, these cells are plated out on black 96-well plates with a clear base (BD Biosciences, Heidelberg, Germany or Greiner, Frickenhausen, Germany) in a density of 20,000-35,000 cells/well. The cells are left overnight at 37° C. and 5% CO2 in culture medium (hB1R cells: Nutrient Mixture Ham's F12, Gibco Invitrogen GmbH, Karlsruhe, Germany or DMEM, Sigma-Aldrich, Taufkirchen, Germany; rB1R cells: D-MEM/F12, Gibco Invitrogen GmbH, Karlsruhe, Germany) with 10 vol. % FBS (foetal bovine serum, Gibco Invitrogen GmbH, Karlsruhe, Germany or PAN Biotech GmbH, Aidenbach, Germany). On the following day, the cells are loaded for 60 min at 37° C. with 2.13 μM Fluo-4 (Molecular Probes Europe BV, Leiden Holland) in HBSS buffer (Hank's buffered saline solution, Gibco Invitrogen GmbH, Karlsruhe, Germany) with 2.5 mM probenecid (Sigma-Aldrich, Taufkirchen, Germany) and 10 mM HEPES (Sigma-Aldrich, Taufkirchen, Germany). The plates are then washed 2× with HBSS buffer, and HBSS buffer which additionally contains 0.1% BSA (bovine serum albumin; Sigma-Aldrich, Taufkirchen, Germany), 5.6 mM glucose and 0.05% gelatine (Merck KGaA, Darmstadt, Germany) is added. After a further incubation of 20 minutes at room temperature, the plates are inserted into the FLIPR for the Ca^2+ measurement. Alternatively, the plates are washed with buffer A (15 mM HEPES, 80 mM NaCl, 5 mM KCl, 1.2 mM CaCl2, 0.7 mM MgSO4, 2 g/l glucose, 2.5 mM probenecid), buffer A is added and the plates are loaded with 2.5 μM Fluo-4 and 0.025% Pluronic F127 (Sigma-Aldrich, Taufkirchen, Germany). Thereafter, the cells are washed 2× with buffer A and incubated for 30 minutes at room temperature with buffer A, which additionally contains 0.05% BSA and 0.05% gelatine, and thereafter inserted into the FLIPR for the Ca^2+ measurement. The Ca^2+-dependent fluorescence is measured here before and after addition of substances (λex=488 nm, λem=540 nm). Quantification is by measurement of the highest fluorescence intensity (FC, fluorescence counts) over time.
The FLIPR protocol consists of 2 additions of substance. Test substances (10 μM) are first pipetted on to the cells and the Ca^2+ inflow is compared with the control (hB1R: Lys-Des-Arg^9-bradykinin>=50 nM; rB1R: Des-Arg^9-bradykinin 10 μM). This gives the result in % activation based on the Ca^2+ signal after addition of Lys-Des-Arg^9-bradykinin (>=50 nM) or Des-Arg^9-bradykinin (10 μM). After incubation for 10-20 minutes, Lys-Des-Arg^9-bradykinin (hB1R) or Des-Arg^9-bradykinin (rB1R) in the concentration of the EC80 is applied and the inflow of Ca^2+ is likewise determined. Antagonists lead to a suppression of the Ca^2+ inflow. % inhibition compared with the maximum achievable inhibition is calculated.
For determination of the IC50 value, the substances are added in various concentrations. […]
`CC1(C)CC(NS(=O)(=O)c2c(Cl)cccc2Cl)c2cc(C(=O)N3CCC4(CC3)CCN(c3ccncc3)CC4)ccc21` (stereo not shown) [IND_CC-332, 2,6-Dichloro-N-[3,3-dimethyl-6-(3-pyridin-4-yl-3,9-diazaspiro[5.5]undecane-9-carbonyl)-1,2-dihydro-inden-1-yl]-benzenesulfonic acid amide] gave an inhibition at 10 µM of 97%.
Compound `O=C(c1ccc2c(c1)C(NS(=O)(=O)c1c(Cl)cccc1Cl)CC2)N1CCC2(CCN(c3ccncc3)CC2)C1` (stereo not shown) [IND_CC-333, 2,6-Dichloro-N-[6-(8-pyridin-4-yl-2,8-diazaspiro[4.5]decane-2-carbonyl)-2,3-dihydro-1H-inden-1-yl]-benzenesulfonic acid amide] has an inhibition at 10 µM of 92%.
Work on `CC1(C)Cc2ccc(C(=O)N3CCC4(CC3)CCN(c3ccncc3)CC4)cc2C1NS(=O)(=O)c1ccc(Cl)cc1Cl` (stereo not shown) [IND_CC-334, 2,4-Dichloro-N-[2,2-dimethyl-6-(9-pyridin-4-yl-3,9-diazaspiro[5.5]undecane-3-carbonyl)-1,3-dihydro-inden-1-yl]-benzenesulfonic acid amide] yielded an inhibition at 10 µM of 90%.
`CC1(C)CC(NS(=O)(=O)c2ccc(Cl)cc2Cl)c2cc(C(=O)N3CCC4(CC3)CCN(c3ccncc3)CC4)ccc21` (stereo not shown) [IND_CC-335, 2,4-Dichloro-N-[3,3-dimethyl-6-(3-pyridin-4-yl-3,9-diazaspiro[5.5]undecane-9-carbonyl)-1,2-dihydro-inden-1-yl]-benzenesulfonic acid amide] gave an inhibition at 10 µM of 102%.
For `CC1(C)Cc2ccc(C(=O)N3CCC4(CC3)CCN(c3ccncc3)CC4)cc2C1NS(=O)(=O)c1ccccc1Cl` (stereo not shown) [IND_CC-336, 2-Chloro-N-[2,2-dimethyl-6-(9-pyridin-4-yl-3,9-diazaspiro[5.5]undecane-3-carbonyl)-1,3-dihydro-inden-1-yl]-benzenesulfonic acid amide], the inhibition at 10 µM was 103%.
Compound `CC1(C)CC(NS(=O)(=O)c2ccccc2Cl)c2cc(C(=O)N3CCC4(CC3)CCN(c3ccncc3)CC4)ccc21` (stereo not shown) [IND_CC-337, 2-Chloro-N-[3,3-dimethyl-6-(3-pyridin-4-yl-3,9-diazaspiro[5.5]undecane-9-carbonyl)-1,2-dihydro-inden-1-yl]-benzenesulfonic acid amide] has an inhibition at 10 µM of 104%.
`Cc1cc(F)ccc1S(=O)(=O)NC1c2cc(C(=O)N3CCC4(CC3)CCN(c3ccncc3)CC4)ccc2CC1(C)C` (stereo not shown) [IND_CC-338, N-[2,2-Dimethyl-6-(9-pyridin-4-yl-3,9-diazaspiro[5.5]undecane-3-carbonyl)-1,3-dihydro-inden-1-yl]-4-fluoro-2-methyl-benzenesulfonic acid amide] showed an inhibition at 10 µM of 103%.
Work on `Cc1cc(F)ccc1S(=O)(=O)NC1CC(C)(C)c2ccc(C(=O)N3CCC4(CC3)CCN(c3ccncc3)CC4)cc21` (stereo not shown) [IND_CC-339, N-[3,3-Dimethyl-6-(3-pyridin-4-yl-3,9-diazaspiro[5.5]undecane-9-carbonyl)-1,2-dihydro-inden-1-yl]-4-fluoro-2-methyl-benzenesulfonic acid amide] yielded an inhibition at 10 µM of 103%.
`CC1(C)CC(NS(=O)(=O)c2cccc(C(F)(F)F)c2)c2cc(C(=O)N3CCC4(CC3)CCN(c3ccncc3)CC4)ccc21` (stereo not shown) [IND_CC-340, N-[3,3-Dimethyl-6-(3-pyridin-4-yl-3,9-diazaspiro[5.5]undecane-9-carbonyl)-1,2-dihydro-inden-1-yl]-3-(trifluoromethyl)-benzenesulfonic acid amide] gave an inhibition at 10 µM of 101%.
With `CC1(C)Cc2ccc(C(=O)N3CCC4(CC3)CCN(c3ccncc3)CC4)cc2C1NS(=O)(=O)c1cccc(C(F)(F)F)c1` (stereo not shown) [IND_CC-341, N-[2,2-Dimethyl-6-(9-pyridin-4-yl-3,9-diazaspiro[5.5]undecane-3-carbonyl)-1,3-dihydro-inden-1-yl]-3-(trifluoromethyl)-benzenesulfonic acid amide] the inhibition at 10 µM was 87%.
`O=C(c1ccc2c(c1)C(NS(=O)(=O)c1cccc(C(F)(F)F)c1)CC2)N1CCC2(CCN(c3ccncc3)CC2)C1` (stereo not shown) [IND_CC-342, N-[6-(8-Pyridin-4-yl-2,8-diazaspiro[4.5]decane-2-carbonyl)-2,3-dihydro-1H-inden-1-yl]-3-(trifluoromethyl)-benzenesulfonic acid amide] showed an inhibition at 10 µM of 103%.
`CN(C1CCc2ccc(C(=O)N3CCC4(CC3)CCN(c3ccncc3)CC4)cc21)S(=O)(=O)c1cc(Cl)ccc1Cl` (stereo not shown) [IND_CC-344, 2,5-Dichloro-N-methyl-N-[6-(9-pyridin-4-yl-3,9-diazaspiro[5.5]undecane-3-carbonyl)-2,3-dihydro-1H-inden-1-yl]-benzenesulfonic acid amide] showed an inhibition at 10 µM of 99%.
For `Cc1ccccc1C(=O)N(C)C1CCc2ccc(C(=O)N3CCC4(CC3)CCN(c3ccncc3)CC4)cc21` (stereo not shown) [IND_CC-345, N,2-Dimethyl-N-[6-(9-pyridin-4-yl-3,9-diazaspiro[5.5]undecane-3-carbonyl)-2,3-dihydro-1H-inden-1-yl]-benzamide], the inhibition at 10 µM was 105%.
For `Cc1ccccc1C(=O)NC1CCc2ccc(C(=O)N3CCC4(CC3)CCN(c3ccncc3)CC4)cc21` (stereo not shown) [IND_CC-346, 2-Methyl-N-[6-(9-pyridin-4-yl-3,9-diazaspiro[5.5]undecane-3-carbonyl)-2,3-dihydro-1H-inden-1-yl]-benzamide], the inhibition at 10 µM was 104%.
With `Cc1ccccc1C(=O)NC1CCc2ccc(C(=O)N3CCC4(CC3)CCN(c3ccncc3)C4)cc21` (stereo not shown) [IND_CC-347, 2-Methyl-N-[6-(2-pyridin-4-yl-2,8-diazaspiro[4.5]decane-8-carbonyl)-2,3-dihydro-1H-inden-1-yl]-benzamide] the inhibition at 10 µM was 106%.
`CN(C1CCc2ccc(C(=O)N3CCC4(CC3)CCN(c3ccncc3)CC4)cc21)S(=O)(=O)Cc1ccccc1F` (stereo not shown) [IND_CC-348, 1-(2-Fluorophenyl)-N-methyl-N-[6-(9-pyridin-4-yl-3,9-diazaspiro[5.5]undecane-3-carbonyl)-2,3-dihydro-1H-inden-1-yl]-methanesulfonic acid amide] showed an inhibition at 10 µM of 102%.
With `O=C(c1ccc2c(c1)C(NS(=O)(=O)Cc1ccccc1F)CC2)N1CCC2(CC1)CCN(c1ccncc1)CC2` (stereo not shown) [IND_CC-349, 1-(2-Fluorophenyl)-N-[6-(9-pyridin-4-yl-3,9-diazaspiro[5.5]undecane-3-carbonyl)-2,3-dihydro-1H-inden-1-yl]-methanesulfonic acid amide] the inhibition at 10 µM was 105%.
`O=C(c1ccc2c(c1)C(NS(=O)(=O)Cc1ccccc1F)CC2)N1CCC2(CC1)CCN(c1ccncc1)C2` (stereo not shown) [IND_CC-350, 1-(2-Fluorophenyl)-N-[6-(2-pyridin-4-yl-2,8-diazaspiro[4.5]decane-8-carbonyl)-2,3-dihydro-1H-inden-1-yl]-methanesulfonic acid amide] showed an inhibition at 10 µM of 106%.
`CN(C1CCc2ccc(C(=O)N3CCC4(CC3)CCN(c3ccncc3)CC4)cc21)S(=O)(=O)Cc1cccc(Cl)c1` (stereo not shown) [IND_CC-351, 1-(3-Chlorophenyl)-N-methyl-N-[6-(9-pyridin-4-yl-3,9-diazaspiro[5.5]undecane-3-carbonyl)-2,3-dihydro-1H-inden-1-yl]-methanesulfonic acid amide] showed an inhibition at 10 µM of 99%.
